The values that follow come from US20130344026A1, “Dimeric Smac Mimetics” (priority 2009, published 2013).

Molecules are shown by their SMILES.

For one assay, the system named is HCC461. Kind of assay: cell viability assay in HCC461, compound alone. The class given is cell-based. As to conditions: HCC461, HCC461 cells, compound alone; read-out: IC50 (uM) in cell viability assay in HCC461.
As to `CN[C@@H](C)C(=O)N[C@H](C(=O)N1C[C@@H](NC(=O)c2cc(C(=O)N[C@H]3C[C@@H](C(=O)NC4CCCc5ccccc54)N(C(=O)[C@@H](NC(=O)[C@H](C)NC)C(C)(C)C)C3)cc([N+](=O)[O-])c2)CC1C(=O)N[C@@H]1CCCc2ccccc21)C(C)(C)C` (stereo partly drawn) [Compound P3-16], the IC50 stood at 0.007 µM.

For the molecule `CN[C@@H](C)C(=O)N[C@H](C(=O)N1C[C@@H](NC(=O)Cc2ccc(CC(=O)N[C@H]3C[C@@H](C(=O)N[C@@H]4CCCc5ccccc54)N(C(=O)[C@@H](NC(=O)[C@H](C)NC)C(C)(C)C)C3)cc2)C[C@H]1C(=O)N[C@@H]1CCCc2ccccc21)C(C)(C)C` [Compound P3-18], the IC50 worked out at 0.008 µM.

As to `CN[C@@H](C)C(=O)N[C@H](C(=O)N1C[C@@H](NC(=O)Cc2cccc(CC(=O)N[C@H]3C[C@@H](C(=O)N[C@@H]4CCCc5ccccc54)N(C(=O)[C@@H](NC(=O)[C@H](C)NC)C(C)(C)C)C3)c2)C[C@H]1C(=O)N[C@@H]1CCCc2ccccc21)C(C)(C)C` [Compound P3-19], the IC50 was 0.002 µM.

Regarding `CN[C@@H](C)C(=O)N[C@H](C(=O)N1C[C@@H](NC(=O)c2ccccc2C(=O)N[C@H]2C[C@@H](C(=O)N[C@@H]3CCCc4ccccc43)N(C(=O)[C@@H](NC(=O)[C@H](C)NC)C(C)(C)C)C2)C[C@H]1C(=O)N[C@@H]1CCCc2ccccc21)C(C)(C)C` [Compound P3-20], the IC50 was found to be 0.008 µM.

As for `CN[C@@H](C)C(=O)N[C@H](C(=O)N1C[C@@H](NC(=O)CCCCC(=O)N[C@H]2C[C@@H](C(=O)N[C@@H]3CCCc4ccccc43)N(C(=O)[C@@H](NC(=O)[C@H](C)NC)C(C)(C)C)C2)C[C@H]1C(=O)N[C@@H]1CCCc2ccccc21)C(C)(C)C` [Compound P3-22], the IC50 amounted to 0.003 µM.

For `CN[C@@H](C)C(=O)N[C@H](C(=O)N1C[C@@H](NC(=O)c2cc(C(=O)N[C@H]3C[C@@H](C(=O)N[C@@H]4CCCc5ccccc54)N(C(=O)[C@@H](NC(=O)[C@H](C)NC)C(C)(C)C)C3)cc(C(C)(C)C)c2)C[C@H]1C(=O)N[C@@H]1CCCc2ccccc21)C(C)(C)C` [Compound P3-23], the concentration for half-maximal inhibition (IC50) came out at 0.007 µM.

With `CN[C@@H](C)C(=O)N[C@H](C(=O)N1C[C@@H](NC(=O)C(C)C(C)C(=O)N[C@H]2C[C@@H](C(=O)N[C@@H]3CCCc4ccccc43)N(C(=O)[C@@H](NC(=O)[C@H](C)NC)C(C)(C)C)C2)C[C@H]1C(=O)N[C@@H]1CCCc2ccccc21)C(C)(C)C` (stereo partly drawn) [Compound P3-24], the IC50 amounted to 0.006 µM.

Take `CN[C@@H](C)C(=O)N[C@H](C(=O)N1C[C@@H](Oc2cccc(O[C@H]3C[C@@H](C(=O)NC4CCCc5ccccc54)N(C(=O)[C@@H](NC(=O)[C@H](C)NC)C(C)(C)C)C3)c2)C[C@H]1C(=O)NC1CCCc2ccccc21)C(C)(C)C` (stereo partly drawn) [Compound P3-25]: the IC50 worked out at 0.007 µM.

As for `CN[C@@H](C)C(=O)N[C@H](C(=O)N1C[C@@H](NC(=O)c2nn[nH]c2C(=O)N[C@H]2C[C@@H](C(=O)NC3CCCc4ccccc43)N(C(=O)[C@@H](NC(=O)[C@H](C)NC)C(C)(C)C)C2)CC1C(=O)N[C@@H]1CCCc2ccccc21)C(C)(C)C` (stereo partly drawn) [Compound P3-26], the IC50 was 0.058 µM.

With `CN[C@@H](C)C(=O)N[C@H](C(=O)N1C[C@@H](NC(=O)c2cc(Br)cc(C(=O)N[C@H]3C[C@@H](C(=O)NC4CCCc5ccccc54)N(C(=O)[C@@H](NC(=O)[C@H](C)NC)C(C)(C)C)C3)c2)CC1C(=O)N[C@@H]1CCCc2ccccc21)C(C)(C)C` (stereo partly drawn) [Compound P3-29], the IC50 was 0.016 µM.

With `CN[C@@H](C)C(=O)N[C@H](C(=O)N1C[C@@H](NC(=O)c2cc(C(=O)N[C@H]3C[C@@H](C(=O)NC4CCCc5ccccc54)N(C(=O)[C@@H](NC(=O)[C@H](C)NC)C(C)(C)C)C3)ccc2Br)CC1C(=O)N[C@@H]1CCCc2ccccc21)C(C)(C)C` (stereo partly drawn) [Compound P3-30], the IC50 stood at 0.013 µM.

On to `CN[C@@H](C)C(=O)N[C@H](C(=O)N1C[C@@H](NC(=O)[C@H]2CC[C@H](C(=O)N[C@H]3C[C@@H](C(=O)N[C@@H]4CCCc5ccccc54)N(C(=O)[C@@H](NC(=O)[C@H](C)NC)C(C)(C)C)C3)CC2)C[C@H]1C(=O)N[C@@H]1CCCc2ccccc21)C(C)(C)C` [Compound P3-31], for which the IC50 came to 0.002 µM.

Regarding `CN[C@@H](C)C(=O)N[C@H](C(=O)N1C[C@@H](NC(=O)C/C=C/CC(=O)N[C@H]2C[C@@H](C(=O)N[C@@H]3CCCc4ccccc43)N(C(=O)[C@@H](NC(=O)[C@H](C)NC)C(C)(C)C)C2)C[C@H]1C(=O)N[C@@H]1CCCc2ccccc21)C(C)(C)C` [Compound P3-32], the half-maximal inhibitory concentration (IC50) worked out at 0.006 µM.

For `CN[C@@H](C)C(=O)N[C@H](C(=O)N1C[C@@H](NC(=O)CC(C)(C)CC(=O)N[C@H]2C[C@@H](C(=O)N[C@@H]3CCCc4ccccc43)N(C(=O)[C@@H](NC(=O)[C@H](C)NC)C(C)(C)C)C2)C[C@H]1C(=O)N[C@@H]1CCCc2ccccc21)C(C)(C)C` [Compound P3-33], the IC50 came out at 0.017 µM.

As to `CN[C@@H](C)C(=O)N[C@H](C(=O)N1C[C@@H](NC(=O)[C@@H]2[C@@H]3CC[C@@H](C3)[C@@H]2C(=O)N[C@H]2C[C@@H](C(=O)N[C@@H]3CCCc4ccccc43)N(C(=O)[C@@H](NC(=O)[C@H](C)NC)C(C)(C)C)C2)C[C@H]1C(=O)N[C@@H]1CCCc2ccccc21)C(C)(C)C` [Compound P3-34], the IC50 came out at 0.08 µM.

In the case of `CN[C@@H](C)C(=O)N[C@H](C(=O)N1C[C@@H](NC(=O)CNCC(=O)N[C@H]2C[C@@H](C(=O)N[C@@H]3CCCc4ccccc43)N(C(=O)[C@@H](NC(=O)[C@H](C)NC)C(C)(C)C)C2)C[C@H]1C(=O)N[C@@H]1CCCc2ccccc21)C(C)(C)C` [Compound P3-35], the IC50 was 0.048 µM.

As to `CN[C@@H](C)C(=O)N[C@H](C(=O)N1C[C@@H](NC(=O)c2nc[nH]c2C(=O)N[C@H]2C[C@@H](C(=O)N[C@@H]3CCCc4ccccc43)N(C(=O)[C@@H](NC(=O)[C@H](C)NC)C(C)(C)C)C2)C[C@H]1C(=O)N[C@@H]1CCCc2ccccc21)C(C)(C)C` [Compound P3-36], the IC50 amounted to 2.38 µM.

In the case of `CN[C@@H](C)C(=O)N[C@H](C(=O)N1C[C@@H](NC(=O)c2ccc(-c3ccc(C(=O)N[C@H]4C[C@@H](C(=O)N[C@@H]5CCCc6ccccc65)N(C(=O)[C@@H](NC(=O)[C@H](C)NC)C(C)(C)C)C4)cc3)cc2)C[C@H]1C(=O)N[C@@H]1CCCc2ccccc21)C(C)(C)C` [Compound P3-37], the 50% inhibitory concentration (IC50) is 0.008 µM.

For the molecule `CN[C@@H](C)C(=O)N[C@H](C(=O)N1C[C@@H](NC(=O)c2ccc3cc(C(=O)N[C@H]4C[C@@H](C(=O)N[C@@H]5CCCc6ccccc65)N(C(=O)[C@@H](NC(=O)[C@H](C)NC)C(C)(C)C)C4)ccc3c2)C[C@H]1C(=O)N[C@@H]1CCCc2ccccc21)C(C)(C)C` [Compound P3-38], the IC50 came to 0.007 µM.

With `CN[C@@H](C)C(=O)N[C@H](C(=O)N1C[C@@H](NC(=O)c2cccnc2-c2ncccc2C(=O)N[C@H]2C[C@@H](C(=O)NC3CCCc4ccccc43)N(C(=O)[C@@H](NC(=O)[C@H](C)NC)C(C)(C)C)C2)CC1C(=O)N[C@@H]1CCCc2ccccc21)C(C)(C)C` (stereo partly drawn) [Compound P3-39], the IC50 stood at 0.006 µM.

`CN[C@@H](C)C(=O)N[C@H](C(=O)N1C[C@@H](NC(=O)c2ccc(-c3ccc(C(=O)N[C@H]4C[C@@H](C(=O)NC5CCCc6ccccc65)N(C(=O)[C@@H](NC(=O)[C@H](C)NC)C(C)(C)C)C4)cn3)nc2)CC1C(=O)N[C@@H]1CCCc2ccccc21)C(C)(C)C` (stereo partly drawn) [Compound P3-40]: the IC50 is 0.005 µM.

As for `CN[C@@H](C)C(=O)N[C@H](C(=O)N1C[C@@H](NC(=O)c2cc(C(=O)N[C@H]3C[C@@H](C(=O)N[C@@H]4CCCc5ccccc54)N(C(=O)[C@@H](NC(=O)[C@H](C)NC)C(C)(C)C)C3)cc(N(S(C)(=O)=O)S(C)(=O)=O)c2)C[C@H]1C(=O)N[C@@H]1CCCc2ccccc21)C(C)(C)C` [Compound P3-41], the IC50 turned out to be 0.016 µM.

For `CN[C@@H](C)C(=O)N[C@H](C(=O)N1C[C@@H](NC(=O)c2cc(NC(C)=O)cc(C(=O)N[C@H]3C[C@@H](C(=O)N[C@@H]4CCCc5ccccc54)N(C(=O)[C@@H](NC(=O)[C@H](C)NC)C(C)(C)C)C3)c2)C[C@H]1C(=O)N[C@@H]1CCCc2ccccc21)C(C)(C)C` [Compound P3-42], the IC50 was found to be 0.011 µM.

For the molecule `CN[C@@H](C)C(=O)N[C@H](C(=O)N1C[C@@H](NC(=O)c2cccc(C(=O)N[C@H]3C[C@@H](C(=O)N[C@H](C)C4CCCCC4)N(C(=O)[C@@H](NC(=O)[C@H](C)NC)C(C)(C)C)C3)c2)C[C@H]1C(=O)N[C@H](C)C1CCCCC1)C(C)(C)C` [Compound P3-43], the half-maximal inhibitory concentration (IC50) was 0.057 µM.

In the case of `CN[C@@H](C)C(=O)N[C@H](C(=O)N1C[C@@H](NC(=O)c2cc(N)cc(C(=O)N[C@H]3C[C@@H](C(=O)N[C@H](C)C4CCCCC4)N(C(=O)[C@@H](NC(=O)[C@H](C)NC)C(C)(C)C)C3)c2)C[C@H]1C(=O)N[C@H](C)C1CCCCC1)C(C)(C)C` [Compound P3-44], the IC50 stood at 0.04 µM.

As to `CN[C@@H](C)C(=O)N[C@H](C(=O)N1C[C@@H](NC(=O)c2cccc(C(=O)N[C@H]3C[C@@H](C(=O)Nc4cccc5c4CCCC5)N(C(=O)[C@@H](NC(=O)[C@H](C)NC)C(C)(C)C)C3)c2)C[C@H]1C(=O)Nc1cccc2c1CCCC2)C(C)(C)C` [Compound P3-45], the IC50 came out at 0.181 µM.

For the molecule `CN[C@@H](C)C(=O)N[C@H](C(=O)N1C[C@@H](NC(=O)C2CCCC(C(=O)N[C@H]3C[C@@H](C(=O)N[C@H](C)C4CCCCC4)N(C(=O)[C@@H](NC(=O)[C@H](C)NC)C(C)(C)C)C3)C2)C[C@H]1C(=O)N[C@H](C)C1CCCCC1)C(C)(C)C` (stereo partly drawn) [Compound P3-46], the IC50 is 0.024 µM.

Still in this assay, the particulars now being: HCC461 cells, compound alone; read-out: IC50 (uM) in cell viability assay in HCC461.
Regarding `CN[C@@H](C)C(=O)N[C@H](C(=O)N1C[C@@H](NC(=O)C2CCCC(C(=O)N[C@H]3C[C@@H](C(=O)NC4CCCc5ccccc54)N(C(=O)[C@@H](NC(=O)[C@H](C)NC)C(C)(C)C)C3)C2)CC1C(=O)N[C@@H]1CCCc2ccccc21)C(C)(C)C` (stereo partly drawn) [Compound P3-17], the IC50 stood at 0.002 µM.

For the molecule `CN[C@@H](C)C(=O)N[C@H](C(=O)N1C[C@@H](NC(=O)C2CCCC(C(=O)N[C@H]3C[C@@H](C(=O)NC4CCCc5ccccc54)N(C(=O)[C@@H](NC(=O)[C@H](C)NC)C(C)(C)C)C3)C2)CC1C(=O)N[C@@H]1CCCc2ccccc21)C(C)(C)C` (stereo partly drawn) [Compound P3-27], the IC50 turned out to be 0.031 µM.

For `CN[C@@H](C)C(=O)N[C@H](C(=O)N1C[C@@H](NC(=O)C2CCCC(C(=O)N[C@H]3C[C@@H](C(=O)NC4CCCc5ccccc54)N(C(=O)[C@@H](NC(=O)[C@H](C)NC)C(C)(C)C)C3)C2)CC1C(=O)N[C@@H]1CCCc2ccccc21)C(C)(C)C` (stereo partly drawn) [Compound P3-28], the 50% inhibitory concentration (IC50) was determined as 0.019 µM.
